Series [1] is described as follows: pKa of the coordinated aqua ligand by UV–vis pH titration. The series is classed as physicochemical. The conditions noted are these: [M(arene/arenyl)(ligand)(H2O)]2+; chloride-free; I = 0.2 M KNO3; t = 25 °C. As for the experimental part: The K a values of the complexes with BP and DCP ligands for the [M(η^6-arene/η^5-arenyl)(ligand)(H2O)]^2+ ⇌ [M(η^6-arene/η^5-arenyl)(ligand)(OH)]^+ + H^+ process also provide valuable insights into their behavior in aqueous solutions. In order to determine the K a values, UV–vis spectra were recorded at different pH values under chloride-free conditions, as shown for the complex RuCymDCP in Figure , and the determined pK a values are presented in Table . […] However, at higher pH values, spectral shifts indicate the onset of aqua ligand deprotonation. For RuCym complexes, the calculated pK a values (Table ) indicate moderate acidity and a higher tendency for deprotonation at physiological pH compared with the RhCp* complexes. […] This lower value is most likely due to the stronger tendency of IrCp*, as well as RuCym, to undergo hydrolysis compared to RhCp*.
An Agilent Cary 8454 diode array spectrophotometer was utilized to obtain UV–vis spectra in the wavelength range 190–1100 nm; the path length was 1 cm. The concentrations of the complexes were between 20 and 100 μM. The actual pH of the samples were measured with an Orion 710A pH-meter equipped with a Metrohm combined electrode (type 6.0234.100) and the pH titrations were performed by a KOH solution using a Metrohm 665 Dosimat buret at 25.0 °C. […] The computer program HypSpec was used to calculate the equilibrium constants.

Series [2] addresses T1, human serum albumin (HSA), Trp-214 in Sudlow’s site I (Homo sapiens, UniProt P02768).
T1 construct: purchased Sigma-Aldrich A8763
The experiment in a line: Trp-214 fluorescence quenching of HSA. The conditions noted are these: PBS’; t = 25 °C; 24 h incubation; c HSA = 1.2 μM; RuCym values conditional at 24 h. It counts as binding. An excerpt: Fluorescence spectroscopy was utilized to elucidate the binding sites on HSA that are targeted by the metal complexes. This investigation concentrated on two key aspects: the quenching of HSA’s intrinsic fluorescence attributed to the sole tryptophan residue (Trp-214) and the displacement of site-specific fluorescent markers warfarin (WF) and dansylglycine (DG). Trp-214 is situated in Sudlow’s site I within the IIA subdomain, rendering it a valuable probe for evaluating interactions at this site. Fluorometric measurements, conducted over a 5 h time frame (see example for RhCp*BP in Figure S19), corroborated the results of UV–vis experiments, the quenching of fluorescence took several hours for the RhCp* complexes, while RuCym compounds had no remarkable effect of Trp-214 fluorescence. Quenching studies were conducted over a 24 h incubation period. This time frame is most probably not enough to reach equilibrium with RuCym complexes; however, this is considered as the upper limit that can be physiologically relevant, as longer incubation times are rendered irrelevant by metabolism and elimination. […] Quenching constants (KQ^′) were computed using HypSpec software. […] It should be noted that quenching constants calculated for the RuCym complexes represent only a temporary state at 24 h of incubation time.
7 Binding interactions of RhCp*BP with HSA analyzed via fluorescence quenching and marker displacement assays. (a) Trp214 fluorescence quenching by RhCp*BP. (b) Measured (dots) and fitted (dashed lines) quenching curves for RhCp*BP, RuCymBP, RhCp*DCP, and RuCymDCP. Fluorescence spectra of the (c) HSA–WF 1:1 and (e) HSA–DG 1:1 systems by the addition of RhCp*BP (dashed lines indicate the free site marker) and the corresponding fluorescence intensity curves at the indicated wavelengths (d,f). The dotted line in figure (d) denotes the fitted intensities. {c HSA = 1.2 μM; c marker = 0 or 1.2 μM PBS’; t = 25 °C}.
Fluorescence measurements were carried out on a Fluoromax (Horiba Jobin Yvon) spectrofluorometer using a 1 cm × 1 cm quartz cuvette in order to assess the interactions of the complexes with HSA in PBS’ medium at 25 °C. The calculated quenching or displacement conditional constants for the HSA-complex species were obtained using the computer program HypSpec. Calculations always were based on data obtained from at least two independent measurements. Self-absorbance and inner filter effect had to be taken into account, and corrections were made as it was described in our former works. , […]
Table S7. Conditions applied for steady -state spectrofluorometric measurements. cHSA cMARKER ccomplex λEX λEM slit widths […]

Series [3] addresses T2, HSA Sudlow’s site I (IIA subdomain) (Homo sapiens, UniProt P02768).
T2 construct: purchased Sigma-Aldrich A8763
In words: warfarin (WF) site marker displacement on HSA. It counts as binding. The conditions noted are these: PBS’; t = 25 °C; HSA–WF 1:1, 1.2 μM. As for the experimental part:
To further explore the binding affinity and site specificity of the metal complexes, site marker displacement experiments were conducted using WF and DG, which bind to Sudlow’s site I (in IIA subdomain) and to Sudlow’s site II (in IIIA subdomain), respectively. The displacement of these fluorescence probes directly confirms the interactions of the metal complexes with the respective binding sites. The displacement constants of WF (KWF′) by the metal complexes (Figure c,d, Table ) were correlated with the Trp-214 quenching data.
Fluorescence measurements were carried out on a Fluoromax (Horiba Jobin Yvon) spectrofluorometer using a 1 cm × 1 cm quartz cuvette in order to assess the interactions of the complexes with HSA in PBS’ medium at 25 °C. The calculated quenching or displacement conditional constants for the HSA-complex species were obtained using the computer program HypSpec. Calculations always were based on data obtained from at least two independent measurements. Self-absorbance and inner filter effect had to be taken into account, and corrections were made as it was described in our former works. ,
Table S7. Conditions applied for steady -state spectrofluorometric measurements.
cHSA cMARKER ccomplex λEX λEM slit widths
(μM) (μM) (μM) (nm) (nm) EX/EM […]
S.; Deflon, V. M.; Ferreira, A. G.; Cominetti, M. R.; Batista, A. A. Cytotoxicity of Ru(II) Piano-
Stool Complexes with Chloroquine and Chelating Ligands against Breast and Lung Tumor Cells:
Interactions with DNA and BSA. J Inorg Biochem 2015, 153, 150–161.
Van Deun, R.; Van Hecke, K. Antitumor Activity of Organoruthenium Complexes with Chelate

Results on 4 compounds are retold here after article PMC12308784, “Organometallic Half-Sandwich Complexes of 1,10-Phenanthroline Derivatives with Improved Solubility, Albumin-Binding, and Nanoformulation Potential Targeting Drug Resistance in Cancer” (Inorganic Chemistry, 2025).

Several values for one entry are separate records, joined by “and”; a condition that tells them apart may be missing. Identical values can stand only once.

T1 sequence (P02768 25-609): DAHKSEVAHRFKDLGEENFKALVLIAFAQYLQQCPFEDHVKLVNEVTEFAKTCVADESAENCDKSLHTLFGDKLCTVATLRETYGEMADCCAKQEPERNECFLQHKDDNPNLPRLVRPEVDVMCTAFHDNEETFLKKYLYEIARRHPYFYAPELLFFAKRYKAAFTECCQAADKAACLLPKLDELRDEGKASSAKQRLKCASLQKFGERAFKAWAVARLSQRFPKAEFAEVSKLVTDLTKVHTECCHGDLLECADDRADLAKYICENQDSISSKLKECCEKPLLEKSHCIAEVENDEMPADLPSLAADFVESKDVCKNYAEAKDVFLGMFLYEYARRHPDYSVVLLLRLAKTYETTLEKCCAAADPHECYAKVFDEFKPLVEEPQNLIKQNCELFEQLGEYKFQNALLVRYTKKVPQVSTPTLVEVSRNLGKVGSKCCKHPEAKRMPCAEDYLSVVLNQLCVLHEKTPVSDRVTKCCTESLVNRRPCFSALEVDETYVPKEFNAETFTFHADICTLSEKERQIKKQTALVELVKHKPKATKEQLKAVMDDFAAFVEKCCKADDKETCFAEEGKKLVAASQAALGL
T2 sequence (P02768 25-609): as above

In the case of `Cc1c(C)c(C)[c-](C)c1C.Clc1ccnc2c1ccc1c(Cl)ccnc12.[Cl-].[Cl-].[Rh+3]` [RhCp*DCP, [Rh(III)(η^5-C5Me5)(4,7-dichloro-1,10-phenanthroline)Cl]Cl], in series [1], the “pK a [ML(H2O)]” value was determined as 8.33 ± 0.05. For the same compound, in series [2], the “logK Q′ (quenching constant)” value was 4.6 and 4.6 ± 0.1. The “logK WF′ (WF displacement constant)” value in series [3] came out at 4.8 ± 0.1.

For the compound `Cc1ccc(C(C)C)cc1.[Cl-].[Cl-].[Ru+2].c1ccc(-c2ccnc3c2ccc2c(-c4ccccc4)ccnc23)cc1` [RuCymBP, [Ru(II)(η^6-p-cymene)(bathophenanthroline)Cl]Cl], in series [1], the “pK a [ML(H2O)]” value stood at 7.57 ± 0.06. For the same compound, the “logK Q′ (quenching constant)” value in series [2] is 4.3 ± 0.1. For the same compound, the “logK WF′ (WF displacement constant)” value in series [3] stood at 4.4 ± 0.1.

Take `Cc1ccc(C(C)C)cc1.Clc1ccnc2c1ccc1c(Cl)ccnc12.[Cl-].[Cl-].[Ru+2]` [RuCymDCP, [Ru(II)(η^6-p-cymene)(4,7-dichloro-1,10-phenanthroline)Cl]Cl]: in series [1], the “pK a [ML(H2O)]” value worked out at 7.21 ± 0.06. Moreover, the “logK Q′ (quenching constant)” value in series [2] is at most 3.8. In series [3], the “logK WF′ (WF displacement constant)” value is at most 4.3.

Consider “[Rh(III)(η^5-C5Me5)(bathophenanthroline)Cl]Cl [RhCp*BP]”, for which, in series [1], the “pK a [ML(H2O)]” value was 8.81 ± 0.06. The “logK Q′ (quenching constant)” value in series [2] was 5.5 and 5.5 ± 0.1. Further, the “logK WF′ (WF displacement constant)” value in series [3] worked out at 5.6 ± 0.1.
